This experiment addresses T1, recombinant human 5-HT5A receptor (Homo sapiens, UniProt P47898).
T1 construct: expressed in transfected cells; host or cells: Human Embryonic Kidney-EBNA (HEK-EBNA) cells, transient cDNA expression; membranes
Briefly: [3H]LSD radioligand binding assay. Particulars: [3H]LSD approx. 1 nM; membranes from HEK-EBNA cells transiently expressing 5-HT5A; Ki from IC50 by Cheng-Prussoff. How it is done: A [^3H]LSD radioligand binding assay was used to determine the affinity of the compounds for the recombinant human 5-HT5A receptor, in membranes from transiently (cDNA) expressed 5-HT5A receptors in Human Embryonic Kidney-EBNA (HEK-EBNA) cells. Assay buffer consisted of Tris (50 mM) buffer containing 1 mM EGTA, 10 mM MgCl2 (pH 7.4) and 10 μM pargyline. The binding assay was carried out in 96-well-plates in the presence of [^3H]LSD (approximately 1 nM), approximately 2 μg/well of membrane protein, and 0.5 mg of Ysi-poly-l-lysine SPA beads in a final volume of 200 μl of buffer. Non-specific binding was defined using methiothepin 2 μM. Compounds were tested at 10 concentrations. All assays were conducted in duplicate and repeated at least two times. Assay plates were incubated for 120 min at room temperature before centrifugation. Bound ligand was determined using a Packard Topcount scintillation counter. IC50 values were calculated using a non-linear curve fitting program and Ki values calculated using the Cheng-Prussoff equation.
T1 sequence (P47898 whole entry): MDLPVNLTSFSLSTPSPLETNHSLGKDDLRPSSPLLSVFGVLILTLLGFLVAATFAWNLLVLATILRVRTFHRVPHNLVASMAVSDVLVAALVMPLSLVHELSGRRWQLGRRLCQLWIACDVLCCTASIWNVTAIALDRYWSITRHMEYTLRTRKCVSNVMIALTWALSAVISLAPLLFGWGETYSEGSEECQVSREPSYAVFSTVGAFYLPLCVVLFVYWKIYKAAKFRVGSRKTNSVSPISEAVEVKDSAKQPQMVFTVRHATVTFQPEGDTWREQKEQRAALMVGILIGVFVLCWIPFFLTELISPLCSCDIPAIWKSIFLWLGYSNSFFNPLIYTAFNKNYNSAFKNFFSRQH
For orientation: Ki means a dissociation constant, usually derived from enzyme kinetics or from competition with a known ligand. Regarding `Cc1ccc(CNc2ccc3c(NCc4ccc5[nH]cnc5c4)cccc3n2)o1` [Example 107, N5-(1H-Benzoimidazol-5-ylmethyl)-N2-(5-methyl-furan-2-ylmethyl)-quinoline-2,5-diamine], the Ki worked out at 3.92 nM. `O=S(=O)(Nc1cccc2nc(NCc3ccccc3OC(F)(F)F)ccc12)c1ccc(F)cc1` [Example 108, 4-Fluoro-N-[2-(2-trifluoromethoxy-benzylamino)-quinolin-5-yl]-benzenesulfonamide]: the inhibitory constant (Ki) stood at 49.6 nM. `COc1cccc(OC)c1CNc1ccc2c(NCc3cccc4[nH]ccc34)cccc2n1` [Example 109, N2-(2,6-Dimethoxy-benzyl)-N5-(1H-indol-4-ylmethyl)-quinoline-2,5-diamine]: the Ki amounted to 97.3 nM. In the case of `COc1ccccc1CNc1ccc2c(NCc3nccs3)cccc2n1` [Example 110, N2-(2-Methoxy-benzyl)-N5-thiazol-2-ylmethyl-quinoline-2,5-diamine], the Ki came out at 16.8 nM. For `Cc1cc2cccc(Nc3ccc4c(NCc5cccc6[nH]ccc56)cccc4n3)c2o1` [Example 111, N5-(1H-Indol-4-ylmethyl)-N2-(2-methyl-benzofuran-7-yl)-quinoline-2,5-diamine], the Ki turned out to be 10.1 nM. With `Cc1cc2cccc(Nc3ccc4c(Nc5cccc6[nH]ccc56)cccc4n3)c2o1` [Example 113, N5-(1H-Indol-4-yl)-N2-(2-methyl-benzofuran-7-yl)-quinoline-2,5-diamine] the figure was 20.6 nM; with `COc1ccccc1CNc1ccc2c(NCc3ccc4nc[nH]c4c3)cccc2n1` [Example 114, N5-(3H-Benzoimidazol-5-ylmethyl)-N2-(2-methoxy-benzyl)-quinoline-2,5-diamine], 3.33 nM. With `Cc1ccc(CNc2ccc3c(NCc4cnn[nH]4)cccc3n2)o1` [Example 115, N2-(5-Methyl-furan-2-ylmethyl)-N5-(3H-[1,2,3]triazol-4-ylmethyl)-quinoline-2,5-diamine] the figure was 35.3 nM. With `FC(F)(F)Oc1ccccc1CNc1ccc2c(NCc3cccc4[nH]ccc34)cccc2n1` [Example 116, N5-(1H-Indol-4-ylmethyl)-N2-(2-trifluoromethoxy-benzyl)-quinoline-2,5-diamine] the figure was 32.9 nM; with `FC(F)(F)Oc1ccccc1CNc1ccc2c(NCc3ccc4[nH]cnc4c3)cccc2n1` [Example 117, N5-(1H-Benzoimidazol-5-ylmethyl)-N2-(2-trifluoromethoxy-benzyl)-quinoline-2,5-diamine], 32.4 nM; with `c1cc(CNc2ccc3c(NCc4cccc5[nH]ccc45)cccc3n2)c2c(c1)OCCO2` [Example 118, N2-(2,3-Dihydro-benzo[1,4]dioxin-5-ylmethyl)-N5-(1H-indol-4-ylmethyl)-quinoline-2,5-diamine], 5.66 nM.

As to `Cc1ccc(CNc2ccc3c(Nc4ccc(F)c5[nH]ccc45)cccc3n2)o1` [Example 119, N5-(7-Fluoro-1H-indol-4-yl)-N2-(5-methyl-furan-2-ylmethyl)-quinoline-2,5-diamine], the Ki turned out to be 8.45 nM. Consider `Cc1ccc(CNc2ccc3c(NCc4cc(F)cc(F)c4)cccc3n2)o1` [Example 120, N5-(3,5-Difluoro-benzyl)-N2-(5-methyl-furan-2-ylmethyl)-quinoline-2,5-diamine], for which the inhibitory constant (Ki) was 8.45 nM. With `Cc1cc2cccc(Nc3ccc4c(NCc5ccc6[nH]cnc6c5)cccc4n3)c2o1` [Example 124, N5-(1H-Benzoimidazol-5-ylmethyl)-N2-(2-methyl-benzofuran-7-yl)-quinoline-2,5-diamine] the figure was 6.29 nM.

`Cc1cc2cccc(Nc3ccc4c(NCc5[nH]cnc5C)cccc4n3)c2o1` [Example 125, N2-(2-Methyl-benzofuran-7-yl)-N5-(5-methyl-3H-imidazol-4-ylmethyl)-quinoline-2,5-diamine]: the inhibitory constant (Ki) was found to be 2.33 nM. For the compound `Cc1cc2cccc(Nc3ccc4c(NS(=O)(=O)c5ccc(F)cc5)cccc4n3)c2o1` [Example 128, 4-Fluoro-N-[2-(2-methyl-benzofuran-7-ylamino)-quinolin-5-yl]-benzenesulfonamide], the Ki was 79.7 nM. `Cc1cc2cccc(Nc3ccc4c(NCc5cccnc5)cccc4n3)c2o1` [Example 129, N2-(2-Methyl-benzofuran-7-yl)-N5-pyridin-3-ylmethyl-quinoline-2,5-diamine]: the Ki was determined as 16 nM.

Take `Cc1cc2cccc(Nc3ccc4c(NCc5cnc[nH]5)cccc4n3)c2o1` [Example 131, N5-(3H-Imidazol-4-ylmethyl)-N2-(2-methyl-benzofuran-7-yl)-quinoline-2,5-diamine]: the Ki worked out at 17.4 nM. With `Cc1cc2cccc(Nc3ccc4c(NCc5cc(F)cc(F)c5)cccc4n3)c2o1` [Example 132, N5-(3,5-Difluoro-benzyl)-N2-(2-methyl-benzofuran-7-yl)-quinoline-2,5-diamine] the figure was 15 nM. `COc1ccccc1CNc1ccc2c(C(=O)c3ccc(F)cc3)cccc2n1` [Example 137, (4-Fluoro-phenyl)-[2-(2-methoxy-benzylamino)-quinolin-5-yl]-methanone]: the Ki was determined as 50.9 nM. On to `O=S(=O)(Nc1cccc2nc(Nc3cccc4c3OCC4)ccc12)c1cc(F)cc(F)c1` [Example 139, N-[2-(2,3-Dihydro-benzofuran-7-ylamino)-quinolin-5-yl]-3,5-difluoro-benzenesulfonamide], for which the inhibition constant (Ki) amounted to 35.5 nM. With `CC1Cc2cccc(Nc3ccc4c(NCc5cccc6[nH]ccc56)cccc4n3)c2O1` (stereo not drawn) [Example 140, N5-(1H-Indol-4-ylmethyl)-N2-(2-methyl-2,3-dihydro-benzofuran-7-yl)-quinoline-2,5-diamine], the Ki was 11.9 nM. With `CC1(C)Cc2cccc(Nc3ccc4c(NS(=O)(=O)c5cc(F)cc(F)c5)cccc4n3)c2O1` [Example 141, N-[2-(2,2-Dimethyl-2,3-dihydro-benzofuran-7-ylamino)-quinolin-5-yl]-3,5-difluoro-benzenesulfonamide] the figure was 22 nM; with `Cc1ccc(CNc2ccc3c(NS(=O)(=O)Nc4ccccc4)cccc3n2)o1` [Example 145, N-(2-{[(5-methyl-2-furyl)methyl]amino}quinolin-5-yl)-N′-phenylsulfamide], 51.3 nM.

`CC1(C)Cc2cccc(Nc3ccc4c(NCc5cccc6[nH]ccc56)cccc4n3)c2O1` [Example 147, N2-(2,2-Dimethyl-2,3-dihydro-benzofuran-7-yl)-N5-(1H-indol-4-ylmethyl)-quinoline-2,5-diamine]: the Ki came out at 4.31 nM. For `CC1(C)Cc2cccc(Nc3ccc4c(NCc5ccc6[nH]cnc6c5)cccc4n3)c2O1` [Example 148, N5-(1H-Benzoimidazol-5-ylmethyl)-N2-(2,2-dimethyl-2,3-dihydro-benzofuran-7-yl)-quinoline-2,5-diamine], the Ki is 3.08 nM. Regarding `Cc1nc[nH]c1CNc1cccc2nc(Nc3cccc4c3OC(C)(C)C4)ccc12` [Example 149, N2-(2,2-Dimethyl-2,3-dihydro-benzofuran-7-yl)-N5-(5-methyl-3H-imidazol-4-ylmethyl)-quinoline-2,5-diamine], the inhibitory constant (Ki) came to 3.97 nM. With `Cc1ccc(CNc2ccc3c(N[C@H]4CCS(=O)(=O)c5ccccc54)cccc3n2)o1` [Example 152, (R)— and (S)—N5-((S)-1,1-Dioxo-1l6-thiochroman-4-yl)-N2-(5-methyl-furan-2-ylmethyl)-quinoline-2,5-diamine] the figure was 14.7 nM; with `Cc1ccc(CNc2ccc3c(NS(=O)(=O)Nc4ccc(F)cc4)cccc3n2)o1` [Example 154, N-(2-{[(5-methyl-2-furyl)methyl]amino}quinolin-5-yl)-N′-(4-fluorophenyl)sulfamide], 25.5 nM. `CC1(C)Cc2cccc(Nc3ccc4c(NS(=O)(=O)Nc5ccc(F)cc5)cccc4n3)c2O1` [Example 156, N-{2-[(2,2-dimethyl-2,3-dihydro-1-benzofuran-7-yl)amino]quinolin-5-yl}-N′-(4-fluorophenyl)sulfamide]: the inhibitory constant (Ki) is 45.1 nM. With `O=S(=O)(Nc1cccc2nc(Nc3cccc(C4CC4)c3)ccc12)c1cc(F)cc(F)c1` [Example 159, N-[2-(3-Cyclopropyl-phenylamino)-quinolin-5-yl]-3,5-difluoro-benzenesulfonamide] the figure was 28.3 nM; with `CC(C)(C)c1cccc(Nc2ccc3c(NS(=O)(=O)c4cc(F)cc(F)c4)cccc3n2)c1` [Example 161, N-[2-(3-tert-Butyl-phenylamino)-quinolin-5-yl]-3,5-difluoro-benzenesulfonamide], 35.5 nM. For `CC1(C)Cc2cccc(Nc3ccc4c(NCc5cccnc5)cccc4n3)c2O1` [Example 163, N2-(2,2-Dimethyl-2,3-dihydro-benzofuran-7-yl)-N5-pyridin-3-ylmethyl-quinoline-2,5-diamine], the Ki was 9.92 nM. With `c1cc(Nc2ccc3c(NCc4cccc5[nH]ccc45)cccc3n2)cc(C2CC2)c1` [Example 164, N2-(3-Cyclopropyl-phenyl)-N5-(1H-indol-4-ylmethyl)-quinoline-2,5-diamine] the figure was 16.6 nM.

As to `c1cc(Nc2ccc3c(NCc4ccc5[nH]cnc5c4)cccc3n2)cc(C2CC2)c1` [Example 165, N5-(1H-Benzoimidazol-5-ylmethyl)-N2-(3-cyclopropyl-phenyl)-quinoline-2,5-diamine], the Ki worked out at 6.43 nM. With `Cc1nc[nH]c1CNc1cccc2nc(Nc3cccc(C4CC4)c3)ccc12` [Example 166, N2-(3-Cyclopropyl-phenyl)-N5-(5-methyl-3H-imidazol-4-ylmethyl)-quinoline-2,5-diamine] the figure was 34.2 nM.

The values above are taken from patent US7825253B2, “2-aminoquinoline derivatives” (Hoffmann-La Roche Inc., priority 2006, dated 2010).
